Columns and labels:
ORAC antioxidant assay = format: physicochemical; details: read-out: ORAC antioxidant EC50; positive control
recombinant human MAO-B = biological target: T1, recombinant human MAO-B (Homo sapiens, UniProt P27338); assay: MAO-B enzyme inhibition assay; format: biochemical
T1 sequence (P27338 1-520): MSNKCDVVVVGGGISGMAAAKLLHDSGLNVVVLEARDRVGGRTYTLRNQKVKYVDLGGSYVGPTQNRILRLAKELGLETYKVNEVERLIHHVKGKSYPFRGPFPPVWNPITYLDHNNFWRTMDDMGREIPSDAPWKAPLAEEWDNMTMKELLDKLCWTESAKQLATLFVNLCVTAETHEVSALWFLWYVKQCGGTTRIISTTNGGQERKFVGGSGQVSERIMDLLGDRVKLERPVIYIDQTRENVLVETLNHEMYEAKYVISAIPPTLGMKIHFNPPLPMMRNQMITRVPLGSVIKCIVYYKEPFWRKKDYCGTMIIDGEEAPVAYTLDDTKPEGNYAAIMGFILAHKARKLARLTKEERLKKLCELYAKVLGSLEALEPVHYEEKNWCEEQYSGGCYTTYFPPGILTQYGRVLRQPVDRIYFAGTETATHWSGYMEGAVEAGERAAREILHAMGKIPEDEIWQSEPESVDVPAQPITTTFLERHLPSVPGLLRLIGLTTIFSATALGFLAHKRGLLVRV

In the case of `O=C1O[C@H]([C@@H](O)CO)C(O)=C1O` [Vitamin C], the EC50 (ORAC antioxidant assay) is reported as 25.9 µM.

With `NS(=O)(=O)Cc1noc2ccccc12` [Zonisamide] the IC50 (recombinant human MAO-B) was 22.6 µM.
